Residues, ends and D or L forms follow the SMILES beside them.
Key:
[1] = FEBS LET. 383:18 (1996); cited from earlier work
[2] = Forward looking example: Metabolic Syndrome patient with chronic environmental antigen stimulation; type: in vivo, human; settings: sublingual once every two weeks, with diet, exercise, ACE Inhibitor, Fluconazole; over a year
Source text: The further application of the instant invention is illustrated by the following forward looking examples.
• A young person presents to their physician, on annual physical examination, with a weight gain of 50 pounds, is found to have high blood pressure, and reports vaginal pruritis. Over the past few years, they have lived in an area of major traffic congestion (near an oil refinery). The physician does a physical examination and discovers unusual black pigmented areas in their neck creases (acanthosis nigricans) and orders laboratory tests, including fasting and 2-hour blood glucose, serum triglycerides, serum insulin, a cholesterol profile, C-Reactive Protein, serum fibrinogen, and a vaginal smear for candidiasis. • They are found to have impaired glucose tolerance, elevated serum triglycerides, low HDL and high […] and high C-Reactive Protein and fibrinogen levels. Their vaginal smear is positive for candida albicans. • The physician knows that they are seeing a case of the Metabolic Syndrome which progresses to Diabetes Mellitus and Coronary Heart Disease. They prescribe a weight reduction diabetic diet, physical exercise, an ACE Inhibitor, and Fluconazole. […] They continue their diet and physical exercise and loses weight. They require less high blood pressure medication. The physician continues to monitor their cell-mediated immune function, blood glucose levels, lipid profile, and measures of inflammation, and adjusts their medications appropriately. • The patient continues to lose weight to reach their target weight, blood pressure is controlled, blood glucose is normalized, and their risk of diabetes mellitus and coronary heart disease is reduced.

| Compound | Immunological activity in vitro [1] | Blood glucose [2] | C-Reactive Protein [2] | Cholesterol level [2] |
| --- | --- | --- | --- | --- |
| N[C@@H](Cc1ccc(O)cc1)C(=O)NCC(=O)NCC(=O)O [YGG, L-tyrosylglycylglycine] (H-Tyr-Gly-Gly-OH) | immunologically active |  |  |  |
| N[C@@H](Cc1ccc(O)cc1)C(=O)NCC(=O)O [YG, L-tyrosylglycine] | immunologically active | changes toward normal | reduced | reduced |
